Bridges are numbered along the chain shown (N, C = ends). Where no end group is shown, it is not given here.
Assays:
[1] = tested on: MC3T3-E1 cells; assay: RT-PCR verification of gene expression in MC3T3-E1 cells; assay type: cell-based, mouse
[2] = tested on: human alkaline phosphatase (hALP) and human type I collagen (hCollagen I); assay: RT-PCR analysis of hALP and hCollagen I in human mesenchymal stem cells; assay type: cell-based
Description: Human mesenchymal stem cells (3×10^4 cells) were seeded on a 6-well plate, followed by culture for 7 days in the presence of an osteoblast differentiation medium (Lonza) or a maintenance medium (Lonza). Peptide D (100 μM and 300 μM) was added to each well. Further, a peptide solvent was added to a control group. After culture, the cells were washed with PBS and dissolved in QIAzol Lysis Reagent (QIAGEN) (0.75 mL). Then, the solution was collected. The solution was left at room temperature for 5 minutes. Then, chloroform (Wako) (0.15 mL) was added, the resultant was admixed by turning upside down, and then the resultant was centrifuged under conditions of 4° C. and 12000×g for 15 minutes. The supernatant was collected in a new tube. RNA was isolated from the supernatant with the use of an EZ1 RNA universal tissue kit (QIAGEN) and Magtration System 12GC (QIAGEN). After determination of the RNA concentration, each RNA (250 ng) was subjected to electrophoresis with 1% agarose gel for confirmation of the occurrence or nonoccurrence of RNA degradation. Non-degraded RNAs (500 ng each) were subjected to RT-PCR. RT-PCR was performed using a ThermoScript RT-PCR System (Invitrogen) and random primers. […]
Samples obtained after the PCR reaction were subjected to electrophoresis with 1% agarose gel. […] The obtained images were analyzed with a CSAnalyzer. […]

[3] = tested on: RANKL knock-down MC3T3-E1 cells; assay: ALP activity in RANKL knock-down MC3T3-E1 cells; assay type: cell-based, mouse; details: KD1 and KD2; 200 μM peptide D or 200 ng/ml BMP-2; 5 days

Substance: peptide D: cyclic peptide of SEQ ID NO: 7, 9 amino acids, two cysteine residues bound via a disulfide bond; binds to RANKL (YCWSQYLCY; disulfide 2-8 (inferred))
- gene expression levels of IRS1, PDGFRβ, PDGFc, FGFR2, FGF2, CTGF, BMP-4 and IGF-2 (RT-PCR) ([1]; 200 μM peptide D (acetate)): significant increases in the gene expression levels
- gene expression levels of ALP, Col1 and OC (RT-PCR) ([1]; 200 μM peptide D (acetate) or 150 ng/ml BMP-2): significant increases in the gene expression levels
- expression levels of alkaline phosphatase and type I collagen ([2]; 100 μM and 300 μM, 7-day differentiation): increased in a peptide-concentration-dependent manner
- mRNA expression levels of alkaline phosphatase and type I collagen ([2]; 300 μM, maintenance medium): caused increases in the mRNA expression levels
- ALP activity enhancement under RANKL knockdown [3]: significantly reduced

Source: patent US20100260680A1, “NOVEL BONE MASS INCREASING AGENT” (ORIENTAL YEAST CO., LTD., priority 2007, published 2010)
